From US20230117034A1, “PYRAZOLOTRIAZINES” (Bayer Aktiengesellschaft, priority 2019, published 2023)

Target: T1, CDK2/CycE (Homo sapiens, UniProt P24941)
T1 construct: purchased ProQinase GmbH (Freiburg, Germany); host or cells: insect cells (Sf9)
Assay: CDK2/CycE kinase assay (TR-FRET, 2 mM ATP)
Format: biochemical
Details: 2 mM ATP (high ATP); median; read-out: CDK2/CyclinE, 2 mM ATP (high ATP), IC50 (median)
Method in brief: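 GST-tagged human CDK2 and CycE from Sf9 cells, about 10 ng/ml, pre-incubated 15 min at 22 °C with compound in Tris/HCl pH 8.0 buffer. Reaction with 2 mM ATP and 0.75 µM biotinylated peptide for 25 min at 22 °C. Phospho-RB antibody TR-FRET (665/620 nm ratio) read after 1 h; data normalised to no-inhibitor and no-enzyme controls.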

Row | Structure (SMILES) | IC50 [µM]
1 | COC(C)(C)CNc1nc(NCc2nc3ccccc3[nH]2)n2ncc(Br)c2n1 [Example 236, N4-(1H-benzimidazol-2-ylmethyl)-8-bromo-N2-(2-methoxy-2-methyl-propyl)pyrazolo[1,5-a][1,3,5]triazine-2,4-diamine] | 12.8
2 | Brc1cnn2c(NCc3nc4ccccc4[nH]3)nc(N3CC4CCC(C3)N4)nc12 [Example 232, N-(1H-benzimidazol-2-ylmethyl)-8-bromo-2-(3,8-diazabicyclo[3.2.1]octan-3-yl)pyrazolo[1,5-a][1,3,5]triazin-4-amine] | 2.87
3 | Cc1ccc2[nH]c(CNc3nc(N4C[C@@H](C)N[C@@H](C)C4)nc4c(Br)cnn34)nc2c1 [Example 209, 8-bromo-2-[(3R,5S)-3,5-dimethylpiperazin-1-yl]-N-[(5-methyl-1H-benzimidazol-2-yl)methyl]pyrazolo[1,5-a][1,3,5]triazin-4-amine] | > 20
4 | Cc1cc(-c2cnn3c(NCc4nc5ccccc5[nH]4)nc(N4CCN(C)CC4)nc23)ccn1 [Example 243, N-[(1H-benzimidazol-2-yl)methyl]-2-(4-methylpiperazin-1-yl)-8-(2-methylpyridin-4-yl)pyrazolo[1,5-a][1,3,5]triazin-4-amine] | > 20
5 | Fc1ccc2[nH]c(CNc3nc(N4CCOCC4)nc4c(C5CC5)cnn34)nc2c1 [Example 181, 8-cyclopropyl-N-[(5-fluoro-1H-benzimidazol-2-yl)methyl]-2-(morpholin-4-yl)pyrazolo[1,5-a][1,3,5]triazin-4-amine] | > 20
6 | COc1cccc2[nH]c(CNc3nc(N4C[C@@H]5CCCN[C@@H]5C4)nc4c(C5CC5)cnn34)nc12 [Example 214, 8-cyclopropyl-N-[(4-methoxy-1H-benzimidazol-2-yl)methyl]-2-[(4aS,7aS)-octahydro-6H-pyrrolo[3,4-b]pyridin-6-yl]pyrazolo[1,5-a][1,3,5]triazin-4-amine] | 17.7
7 | Cc1ccc2[nH]c(CNc3nc(N4CCN(C)CC4)nc4c(C5CC5)cnn34)nc2c1 [Example 210, 8-cyclopropyl-N-[(5-methyl-1H-benzimidazol-2-yl)methyl]-2-(4-methylpiperazin-1-yl)pyrazolo[1,5-a][1,3,5]triazin-4-amine] | > 20
8 | CN1CC2CCC(C1)N2c1nc(NCc2nc3ccccc3[nH]2)n2ncc(Br)c2n1 [Example 226, N-(1H-benzimidazol-2-ylmethyl)-8-bromo-2-(3-methyl-3,8-diazabicyclo[3.2.1]octan-8-yl)pyrazolo[1,5-a][1,3,5]triazin-4-amine] | > 20
9 | Fc1cccc2[nH]c(CNc3nc(N4CCOCC4)nc4c(C5CC5)cnn34)nc12 [Example 188, 8-cyclopropyl-N-[(4-fluoro-1H-benzimidazol-2-yl)methyl]-2-(morpholin-4-yl)pyrazolo[1,5-a][1,3,5]triazin-4-amine] | 15
10 | Cc1ccc2[nH]c(CNc3nc(N4C[C@@H](C)N[C@@H](C)C4)nc4c(C5CC5)cnn34)nc2c1 [Example 194, 8-cyclopropyl-2-[(3R,5S)-3,5-dimethylpiperazin-1-yl]-N-[(5-methyl-1H-benzimidazol-2-yl)methyl]pyrazolo[1,5-a][1,3,5]triazin-4-amine] | > 20
11 | Fc1ccc2[nH]c(CNc3nc(N4CCOCC4)nc4c(C5CC5)cnn34)nc2c1F [Example 172, 8-cyclopropyl-N-[(4,5-difluoro-1H-benzimidazol-2-yl)methyl]-2-(morpholin-4-yl)pyrazolo[1,5-a][1,3,5]triazin-4-amine] | > 20
12 | C[C@@H]1CN(c2nc(NCc3nc4ccccc4[nH]3)n3ncc(Br)c3n2)CCN1 [Example 168, N-[(1H-benzimidazol-2-yl)methyl]-8-bromo-2-[(3R)-3-methylpiperazin-1-yl]pyrazolo[1,5-a][1,3,5]triazin-4-amine] | 12.3
13 | CN1CC[C@@H]2CN(c3nc(NCc4nc5ccccc5[nH]4)n4ncc(Br)c4n3)C[C@@H]21 [Example 217, N-[(1H-benzimidazol-2-yl)methyl]-8-bromo-2-[(3aR,6aR)-1-methylhexahydropyrrolo[3,4-b]pyrrol-5 (1H)-yl]pyrazolo[1,5-a][1,3,5]triazin-4-amine] | > 20
14 | Cc1ccc2[nH]c(CNc3nc(N4C[C@H]5C[C@@H]4CO5)nc4c(C5CC5)cnn34)nc2c1 [Example 196, 8-cyclopropyl-N-[(5-methyl-1H-benzimidazol-2-yl)methyl]-2-[(1R,4R)-2-oxa-5-azabicyclo[2.2.1]heptan-5-yl]pyrazolo[1,5-a][1,3,5]triazin-4-amine] | > 19.8
15 | Fc1ccc2[nH]c(CNc3nc(N4C[C@@H]5C[C@H]4CO5)nc4c(C5CC5)cnn34)nc2c1 [Example 185, 8-cyclopropyl-N-[(5-fluoro-1H-benzimidazol-2-yl)methyl]-2-[(1S,4S)-2-oxa-5-azabicyclo[2.2.1]heptan-5-yl]pyrazolo[1,5-a][1,3,5]triazin-4-amine] | > 20
16 | COc1ccc2[nH]c(CNc3nc(N4C[C@@H](C)N[C@@H](C)C4)nc4c(Br)cnn34)nc2c1 [Example 205, 8-bromo-2-[(3R,5S)-3,5-dimethylpiperazin-1-yl]-N-[(5-methoxy-1 H-benzimidazol-2-yl)methyl]pyrazolo[1,5-a][1,3,5]triazin-4-amine] | > 20

More lines, now with the values ahead:

Row | IC50 [µM] | Structure (SMILES)
17 | 8.6 | Brc1cnn2c(NCc3nc4ccccc4[nH]3)nc(N3CCNC4(CC4)C3)nc12 [Example 176, N-[(1H-benzimidazol-2-yl)methyl]-8-bromo-2-(4,7-diazaspiro[2.5]octan-7-yl)pyrazolo[1,5-a][1,3,5]triazin-4-amine]
18 | 5.39 | CC1(O)CCN(c2nc(NCc3nc4ccccc4[nH]3)n3ncc(Br)c3n2)C1 (stereo not drawn) [Example 225, 1-[4-(1H-benzimidazol-2-ylmethylamino)-8-bromo-pyrazolo[1,5-a][1,3,5]triazin-2-yl]-3-methyl-pyrrolidin-3-ol]
19 | 0.908 | Brc1cnn2c(NCc3nc4ccccc4[nH]3)nc(N3CC4CCC3CN4)nc12 (stereo not drawn) [Example 220, N-(1H-benzimidazol-2-ylmethyl)-8-bromo-2-(2,5-diazabicyclo[2.2.2]octan-2-yl)pyrazolo[1,5-a][1,3,5]triazin-4-amine]
20 | 2.73 | O[C@H]1C[C@@H](Nc2nc(NCc3nc4ccccc4[nH]3)n3ncc(Br)c3n2)C1 [Example 234, cis-3-[(4-{[(1H-benzimidazol-2-yl)methyl]amino}-8-bromopyrazolo[1,5-a][1,3,5]triazin-2-yl)amino]cyclobutan-1-ol]
21 | 1.86 | CN(CC(C)(C)O)c1nc(NCc2nc3ccccc3[nH]2)n2ncc(Br)c2n1 [Example 238, 1-[(4-{[(1H-benzimidazol-2-yl)methyl]amino}-8-bromopyrazolo[1,5-a][1,3,5]triazin-2-yl)(methyl)amino]-2-methylpropan-2-ol]
22 | 4.94 | CN(CCO)c1nc(NCc2nc3ccccc3[nH]2)n2ncc(Br)c2n1 [Example 237, 2-[(4-{[(1H-benzimidazol-2-yl)methyl]amino}-8-bromopyrazolo[1,5-a][1,3,5]triazin-2-yl)(methyl)amino]ethan-1-ol]
23 | 0.761 | OC[C@@H]1CCCCN1c1nc(NCc2nc3c(F)cccc3[nH]2)n2ncc(C3CC3)c2n1 [Example 189, [(2S)-1-(8-cyclopropyl-4-{[(4-fluoro-1H-benzimidazol-2-yl)methyl]amino}pyrazolo[1,5-a][1,3,5]triazin-2-yl)piperidin-2-yl]methanol]
24 | 5.78 | CN1C[C@H]2C[C@@H]1CN2c1nc(NCc2nc3ccccc3[nH]2)n2ncc(Br)c2n1 [Example 218, N-[(1H-benzimidazol-2-yl)methyl]-8-bromo-2-[(1R,4R)-5-methyl-2,5-diazabicyclo[2.2.1]heptan-2-yl]pyrazolo[1,5-a][1,3,5]triazin-4-amine]
25 | 10.8 | Cc1ccc2[nH]c(CNc3nc(N4CCOCC4)nc4c(C5CC5)cnn34)nc2c1 [Example 193, 8-cyclopropyl-N-[(5-methyl-1H-benzimidazol-2-yl)methyl]-2-(morpholin-4-yl)pyrazolo[1,5-a][1,3,5]triazin-4-amine]
26 | 2.72 | OC[C@@H]1CCCCN1c1nc(NCc2nc3c(F)c(F)ccc3[nH]2)n2ncc(C3CC3)c2n1 [Example 184, [(2S)-1-(8-cyclopropyl-4-{[(4,5-difluoro-1H-benzimidazol-2-yl)methyl]amino}pyrazolo[1,5-a][1,3,5]triazin-2-yl)piperidin-2-yl]methanol]
27 | 9.3 | Cc1ccc2[nH]c(CNc3nc(N4C[C@@H]5CCCN[C@@H]5C4)nc4c(Br)cnn34)nc2c1 [Example 203, 8-bromo-N-[(5-methyl-1H-benzimidazol-2-yl)methyl]-2-[(4aS, 7aS)-octahydro-6H-pyrrolo[3,4-b]pyridin-6-yl]pyrazolo[1,5-a][1,3,5]triazin-4-amine]
28 | 5.51 | CC1CN(c2nc(NCc3nc4ccccc4[nH]3)n3ncc(C(C)C)c3n2)CCO1 (racemic) [Example 11, (rac)-N-[(1H-benzimidazol-2-yl)methyl]-2-[2-methylmorpholin-4-yl]-8-(propan-2-yl)pyrazolo[1,5-a][1,3,5]triazin-4-amine]
29 | 5.49 | COc1cccc2[nH]c(CNc3nc(N4CCOCC4)nc4c(C5CC5)cnn34)nc12 [Example 213, 8-cyclopropyl-N-[(4-methoxy-1H-benzimidazol-2-yl)methyl]-2-morpholino-pyrazolo[1,5-a][1,3,5]triazin-4-amine]
30 | 1.77 | OC[C@@H]1CCCCN1c1nc(NCc2nc3cc(F)ccc3[nH]2)n2ncc(C3CC3)c2n1 [Example 191, [(2S)-1-(8-cyclopropyl-4-{[(5-fluoro-1H-benzimidazol-2-yl)methyl]amino}pyrazolo[1,5-a][1,3,5]triazin-2-yl)piperidin-2-yl]methanol]
